# Test results taken from PubChem BioAssay AID1919014 (Molecular Pharmacology Branch, DTP, NCI, 2023).
# Test system: NCI-H1341 complex spheroids, percent test/control
# Assay: Anticancer human tumor NCI-H1341 cell line growth inhibition [AhR];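 also: spheroids exposed to agents for seven days before readout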
# Settings: for IC50: curve of first compound; for viability, T/C: stronger effect = lower value
# Outline: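 Complex tumor spheroids co-cultured with HUVEC and human MSC stroma; AhR antagonists tested in combination with standard-of-care and investigational agents. Top concentration at or near clinical Cmax (else 10 microM), half-log dilutions; growth expressed as percent test/control.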
smiles,measurement,setting,value
CC(C)c1c(-c2ccccc2)nc2c(C#N)c[nH]n2c1=O + Cc1cncc(-c2nc(NCCc3c[nH]c4ccccc34)c3ncn(C(C)C)c3n2)c1,IC50,second compound 0.1 µM,> 10 µM
same,IC50,second compound 0.316 µM,> 10 µM
same,IC50,second compound 1 µM,> 10 µM
same,IC50,second compound 3.16 µM,> 10 µM
same,IC50,second compound 10 µM,< 0.0316 µM
same,"viability, T/C","second compound 0.1 µM, first compound 0.0316 µM",90.7%
same,"viability, T/C","second compound 0.1 µM, first compound 0.1 µM",83.7%
same,"viability, T/C","second compound 0.1 µM, first compound 0.316 µM",86.6%
same,"viability, T/C","second compound 0.1 µM, first compound 1 µM",81.3%
same,"viability, T/C","second compound 0.1 µM, first compound 3.16 µM",69.6%
same,"viability, T/C","second compound 0.1 µM, first compound 10 µM",58%
same,"viability, T/C","second compound 0.316 µM, first compound 0.0316 µM",75.5%
same,"viability, T/C","second compound 0.316 µM, first compound 0.1 µM",87.2%
same,"viability, T/C","second compound 0.316 µM, first compound 0.316 µM",95.5%
same,"viability, T/C","second compound 0.316 µM, first compound 1 µM",75.1%
same,"viability, T/C","second compound 0.316 µM, first compound 3.16 µM",75.8%
same,"viability, T/C","second compound 0.316 µM, first compound 10 µM",72.5%
same,"viability, T/C","second compound 1 µM, first compound 0.0316 µM",75.9%
same,"viability, T/C","second compound 1 µM, first compound 0.1 µM",78.6%
same,"viability, T/C","second compound 1 µM, first compound 0.316 µM",78.5%
same,"viability, T/C","second compound 1 µM, first compound 1 µM",75.3%
same,"viability, T/C","second compound 1 µM, first compound 3.16 µM",78.9%
same,"viability, T/C","second compound 1 µM, first compound 10 µM",68%
same,"viability, T/C","second compound 3.16 µM, first compound 0.0316 µM",79.9%
same,"viability, T/C","second compound 3.16 µM, first compound 0.1 µM",73.6%
same,"viability, T/C","second compound 3.16 µM, first compound 0.316 µM",74.6%
same,"viability, T/C","second compound 3.16 µM, first compound 1 µM",67.6%
same,"viability, T/C","second compound 3.16 µM, first compound 3.16 µM",63.5%
same,"viability, T/C","second compound 3.16 µM, first compound 10 µM",67.4%
same,"viability, T/C","second compound 10 µM, first compound 0.0316 µM",18%
same,"viability, T/C","second compound 10 µM, first compound 0.1 µM",20.1%
same,"viability, T/C","second compound 10 µM, first compound 0.316 µM",21%
same,"viability, T/C","second compound 10 µM, first compound 1 µM",20.2%
same,"viability, T/C","second compound 10 µM, first compound 3.16 µM",16.2%
same,"viability, T/C","second compound 10 µM, first compound 10 µM",19.5%
